The numbers were not newly measured in patent US6632929B1, “Avidin derivatives and uses thereof” (Yeda Research and Development Co. LTD, priority 1998, dated 2003), which cites them from elsewhere.

For series [1], the target named is T1, avidin (Gallus gallus, UniProt P02701).
T1 construct: Egg-white avidin was provided by STC laboratories (Winnipeg, Canada); purchased STC laboratories (Winnipeg, Canada); host or cells: egg white
The settings on record: non-covalent, same biotin-binding site (Green, 1965); read-out: affinity; cited from earlier work.

For series [2], the target named is T1, avidin. As to conditions: avidin-biotin complex; cited from earlier work.
The next series deals with streptavidin (Streptomyces avidinii, UniProt P22629). The settings on record: streptavidin-biotin complex; cited from earlier work.
streptavidin, sequence (P22629 25-183): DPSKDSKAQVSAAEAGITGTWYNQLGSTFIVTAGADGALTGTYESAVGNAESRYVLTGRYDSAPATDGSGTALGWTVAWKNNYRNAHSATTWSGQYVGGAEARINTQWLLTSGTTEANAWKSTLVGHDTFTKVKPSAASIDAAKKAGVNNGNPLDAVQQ

T1 sequence (P02701 25-152): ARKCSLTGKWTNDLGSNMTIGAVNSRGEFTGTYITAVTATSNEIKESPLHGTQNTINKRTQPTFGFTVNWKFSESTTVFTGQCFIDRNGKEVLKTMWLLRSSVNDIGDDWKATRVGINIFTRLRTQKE

As for `O=C(O)c1ccccc1N=Nc1ccc(O)cc1` [4′-hydroxyazobenzene-2-carboxylic acid], the Kd on avidin [1] is 1 to 10 µM.

For `O=C(O)CCCC[C@@H]1SC[C@@H]2NC(=O)N[C@@H]21` [biotin], the affinity constant at avidin [2] was 1.6e+15 M⁻¹; on streptavidin, 2.5e+13 M⁻¹.
